Assay results as given in ChEMBL document CHEMBL5442219.

Columns and labels:
Settings in all cases: Compound concentration 10 µM
[1] = biological target: Sigma non-opioid intracellular receptor 1 (Homo sapiens) (UniProt Q99720)
Description: PDSP Primary Binding target: SIGMAR1 - Compounds are tested at 10 uM concentration, plate are incubated at room temperature in the dark for 90 minutes. Reaction are stopped by vacuum filtration onto 0.3% polyethyleneimine soaked filter mats using Filtermate harvester. Scintilation cocktail is then melted onto microwave-dried filters on a hot plate and the radio activity is counted in Microbia counter.

[2] = biological target: Beta-2 adrenergic receptor (Homo sapiens) (UniProt P07550)
Description: PDSP Primary Binding target: ADRB2 - Compounds are tested at 10 uM concentration, plate are incubated at room temperature in the dark for 90 minutes. Reaction are stopped by vacuum filtration onto 0.3% polyethyleneimine soaked filter mats using Filtermate harvester. Scintilation cocktail is then melted onto microwave-dried filters on a hot plate and the radio activity is counted in Microbia counter.

[3] = biological target: T1, Alpha-1B adrenergic receptor (Homo sapiens) (UniProt P35368)
T1 sequence (whole entry): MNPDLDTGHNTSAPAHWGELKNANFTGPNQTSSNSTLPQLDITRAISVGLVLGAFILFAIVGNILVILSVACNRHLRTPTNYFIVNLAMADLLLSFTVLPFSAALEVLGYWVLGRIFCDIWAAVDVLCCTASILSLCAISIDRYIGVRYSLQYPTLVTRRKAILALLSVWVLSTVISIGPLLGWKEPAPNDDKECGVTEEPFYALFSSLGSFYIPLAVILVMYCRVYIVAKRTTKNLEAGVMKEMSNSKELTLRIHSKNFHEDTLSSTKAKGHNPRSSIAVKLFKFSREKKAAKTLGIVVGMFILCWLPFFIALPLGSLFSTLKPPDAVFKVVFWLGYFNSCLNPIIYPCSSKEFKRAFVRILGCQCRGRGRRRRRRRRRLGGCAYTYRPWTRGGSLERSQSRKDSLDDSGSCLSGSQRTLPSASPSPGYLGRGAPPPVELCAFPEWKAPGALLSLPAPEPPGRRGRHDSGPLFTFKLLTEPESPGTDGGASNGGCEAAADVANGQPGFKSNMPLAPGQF
Description: PDSP Primary Binding target: ADRA1B - Compounds are tested at 10 uM concentration, plate are incubated at room temperature in the dark for 90 minutes. Reaction are stopped by vacuum filtration onto 0.3% polyethyleneimine soaked filter mats using Filtermate harvester. Scintilation cocktail is then melted onto microwave-dried filters on a hot plate and the radio activity is counted in Microbia counter.

[4] = biological target: Sodium-dependent dopamine transporter (Homo sapiens) (UniProt Q01959)
Description: PDSP Primary Binding target: SLC6A3 - Compounds are tested at 10 uM concentration, plate are incubated at room temperature in the dark for 90 minutes. Reaction are stopped by vacuum filtration onto 0.3% polyethyleneimine soaked filter mats using Filtermate harvester. Scintilation cocktail is then melted onto microwave-dried filters on a hot plate and the radio activity is counted in Microbia counter.

[5] = biological target: T2, Alpha-2B adrenergic receptor (Homo sapiens) (UniProt P18089)
T2 sequence (whole entry): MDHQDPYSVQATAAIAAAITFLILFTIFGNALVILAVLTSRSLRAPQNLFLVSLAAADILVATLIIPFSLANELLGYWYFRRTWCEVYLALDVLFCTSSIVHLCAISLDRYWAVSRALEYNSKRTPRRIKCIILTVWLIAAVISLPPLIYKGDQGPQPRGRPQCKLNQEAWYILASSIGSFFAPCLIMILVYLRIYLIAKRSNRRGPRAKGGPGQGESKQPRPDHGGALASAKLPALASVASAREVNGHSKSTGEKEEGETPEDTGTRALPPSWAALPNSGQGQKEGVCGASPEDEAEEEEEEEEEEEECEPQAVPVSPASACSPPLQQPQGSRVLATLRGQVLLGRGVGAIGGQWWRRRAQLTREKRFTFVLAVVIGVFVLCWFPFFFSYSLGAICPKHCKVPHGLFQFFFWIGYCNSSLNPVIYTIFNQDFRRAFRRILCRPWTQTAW
Description: PDSP Primary Binding target: ADRA2B - Compounds are tested at 10 uM concentration, plate are incubated at room temperature in the dark for 90 minutes. Reaction are stopped by vacuum filtration onto 0.3% polyethyleneimine soaked filter mats using Filtermate harvester. Scintilation cocktail is then melted onto microwave-dried filters on a hot plate and the radio activity is counted in Microbia counter.

[6] = biological target: Kappa-type opioid receptor (Homo sapiens) (UniProt P41145)
Description: PDSP Primary Binding target: OPRK1 - Compounds are tested at 10 uM concentration, plate are incubated at room temperature in the dark for 90 minutes. Reaction are stopped by vacuum filtration onto 0.3% polyethyleneimine soaked filter mats using Filtermate harvester. Scintilation cocktail is then melted onto microwave-dried filters on a hot plate and the radio activity is counted in Microbia counter.

[7] = biological target: Delta-type opioid receptor (Homo sapiens) (UniProt P41143)
Description: PDSP Primary Binding target: OPRD1 - Compounds are tested at 10 uM concentration, plate are incubated at room temperature in the dark for 90 minutes. Reaction are stopped by vacuum filtration onto 0.3% polyethyleneimine soaked filter mats using Filtermate harvester. Scintilation cocktail is then melted onto microwave-dried filters on a hot plate and the radio activity is counted in Microbia counter.

[8] = biological target: Translocator protein (Homo sapiens) (UniProt P30536)
Description: PDSP Primary Binding target: TSPO - Compounds are tested at 10 uM concentration, plate are incubated at room temperature in the dark for 90 minutes. Reaction are stopped by vacuum filtration onto 0.3% polyethyleneimine soaked filter mats using Filtermate harvester. Scintilation cocktail is then melted onto microwave-dried filters on a hot plate and the radio activity is counted in Microbia counter.

[9] = biological target: T3, 5-hydroxytryptamine receptor 3A (Homo sapiens) (UniProt P46098)
T3 sequence (whole entry): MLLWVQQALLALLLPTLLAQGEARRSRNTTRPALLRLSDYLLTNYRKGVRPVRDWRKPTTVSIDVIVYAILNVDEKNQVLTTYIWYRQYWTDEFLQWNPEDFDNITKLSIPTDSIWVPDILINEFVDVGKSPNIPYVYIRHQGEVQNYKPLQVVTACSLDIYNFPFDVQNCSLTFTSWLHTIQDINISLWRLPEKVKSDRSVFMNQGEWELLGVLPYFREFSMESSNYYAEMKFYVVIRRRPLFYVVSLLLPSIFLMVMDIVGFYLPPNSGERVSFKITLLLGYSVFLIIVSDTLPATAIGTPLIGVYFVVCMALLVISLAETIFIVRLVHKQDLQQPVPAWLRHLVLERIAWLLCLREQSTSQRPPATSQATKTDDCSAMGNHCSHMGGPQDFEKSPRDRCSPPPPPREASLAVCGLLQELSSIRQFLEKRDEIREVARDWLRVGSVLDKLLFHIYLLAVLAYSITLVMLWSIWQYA
Description: PDSP Primary Binding target: HTR3A - Compounds are tested at 10 uM concentration, plate are incubated at room temperature in the dark for 90 minutes. Reaction are stopped by vacuum filtration onto 0.3% polyethyleneimine soaked filter mats using Filtermate harvester. Scintilation cocktail is then melted onto microwave-dried filters on a hot plate and the radio activity is counted in Microbia counter.

[10] = biological target: Sodium-dependent noradrenaline transporter (Homo sapiens) (UniProt P23975)
Description: PDSP Primary Binding target: SLC6A2 - Compounds are tested at 10 uM concentration, plate are incubated at room temperature in the dark for 90 minutes. Reaction are stopped by vacuum filtration onto 0.3% polyethyleneimine soaked filter mats using Filtermate harvester. Scintilation cocktail is then melted onto microwave-dried filters on a hot plate and the radio activity is counted in Microbia counter.

[11] = biological target: Mu-type opioid receptor (Homo sapiens) (UniProt P35372)
Description: PDSP Primary Binding target: OPRM1 - Compounds are tested at 10 uM concentration, plate are incubated at room temperature in the dark for 90 minutes. Reaction are stopped by vacuum filtration onto 0.3% polyethyleneimine soaked filter mats using Filtermate harvester. Scintilation cocktail is then melted onto microwave-dried filters on a hot plate and the radio activity is counted in Microbia counter.

[12] = biological target: 5-hydroxytryptamine receptor 6 (Homo sapiens) (UniProt P50406)
5-hydroxytryptamine receptor 6 (Homo sapiens), sequence (P50406 whole entry): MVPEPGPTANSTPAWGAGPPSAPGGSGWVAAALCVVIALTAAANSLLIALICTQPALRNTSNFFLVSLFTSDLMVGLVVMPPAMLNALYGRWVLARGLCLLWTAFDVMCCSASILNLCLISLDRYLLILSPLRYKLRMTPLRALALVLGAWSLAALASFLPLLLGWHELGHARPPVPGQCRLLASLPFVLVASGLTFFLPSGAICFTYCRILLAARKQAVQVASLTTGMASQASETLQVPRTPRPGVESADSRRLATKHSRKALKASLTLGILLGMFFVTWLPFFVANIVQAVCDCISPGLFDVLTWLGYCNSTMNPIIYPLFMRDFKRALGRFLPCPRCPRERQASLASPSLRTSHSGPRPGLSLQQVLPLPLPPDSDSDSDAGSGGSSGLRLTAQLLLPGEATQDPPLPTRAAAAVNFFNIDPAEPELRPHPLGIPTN
Description: PDSP Primary Binding target: HTR6 - Compounds are tested at 10 uM concentration, plate are incubated at room temperature in the dark for 90 minutes. Reaction are stopped by vacuum filtration onto 0.3% polyethyleneimine soaked filter mats using Filtermate harvester. Scintilation cocktail is then melted onto microwave-dried filters on a hot plate and the radio activity is counted in Microbia counter.

Mu-type opioid receptor (Homo sapiens), sequence (P35372 whole entry): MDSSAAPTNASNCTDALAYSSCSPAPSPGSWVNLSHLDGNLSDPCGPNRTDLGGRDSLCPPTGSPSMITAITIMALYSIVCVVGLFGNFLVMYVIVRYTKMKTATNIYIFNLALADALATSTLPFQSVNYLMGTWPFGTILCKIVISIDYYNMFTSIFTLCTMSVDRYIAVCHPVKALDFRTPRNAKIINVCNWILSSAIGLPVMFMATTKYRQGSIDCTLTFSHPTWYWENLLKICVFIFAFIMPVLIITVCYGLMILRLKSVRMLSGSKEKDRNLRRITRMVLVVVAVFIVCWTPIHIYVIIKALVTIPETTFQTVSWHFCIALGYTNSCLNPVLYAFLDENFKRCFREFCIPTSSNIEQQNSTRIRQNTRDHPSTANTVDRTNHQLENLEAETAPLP
Delta-type opioid receptor (Homo sapiens), sequence (P41143 whole entry): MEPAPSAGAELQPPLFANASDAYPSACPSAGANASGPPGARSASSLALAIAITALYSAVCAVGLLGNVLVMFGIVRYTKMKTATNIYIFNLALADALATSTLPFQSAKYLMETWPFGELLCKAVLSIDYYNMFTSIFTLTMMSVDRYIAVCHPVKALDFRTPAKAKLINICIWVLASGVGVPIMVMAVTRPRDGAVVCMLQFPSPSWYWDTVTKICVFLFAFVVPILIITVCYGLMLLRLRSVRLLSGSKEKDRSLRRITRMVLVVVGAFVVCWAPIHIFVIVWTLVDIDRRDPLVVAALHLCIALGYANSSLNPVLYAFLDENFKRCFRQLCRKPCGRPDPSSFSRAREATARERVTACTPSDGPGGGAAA
Translocator protein (Homo sapiens), sequence (P30536 whole entry): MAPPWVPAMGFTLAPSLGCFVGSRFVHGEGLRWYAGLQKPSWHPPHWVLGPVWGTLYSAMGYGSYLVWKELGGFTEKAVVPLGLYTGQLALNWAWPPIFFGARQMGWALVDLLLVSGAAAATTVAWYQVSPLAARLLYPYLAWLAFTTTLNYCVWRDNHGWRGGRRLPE
Sigma non-opioid intracellular receptor 1 (Homo sapiens), sequence (Q99720 whole entry): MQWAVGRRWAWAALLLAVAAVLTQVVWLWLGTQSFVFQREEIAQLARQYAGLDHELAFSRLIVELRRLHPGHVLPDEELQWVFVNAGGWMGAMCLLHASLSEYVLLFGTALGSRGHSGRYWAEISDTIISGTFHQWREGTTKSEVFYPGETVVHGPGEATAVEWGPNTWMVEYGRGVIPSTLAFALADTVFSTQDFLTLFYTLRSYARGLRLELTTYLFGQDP
Kappa-type opioid receptor (Homo sapiens), sequence (P41145 whole entry): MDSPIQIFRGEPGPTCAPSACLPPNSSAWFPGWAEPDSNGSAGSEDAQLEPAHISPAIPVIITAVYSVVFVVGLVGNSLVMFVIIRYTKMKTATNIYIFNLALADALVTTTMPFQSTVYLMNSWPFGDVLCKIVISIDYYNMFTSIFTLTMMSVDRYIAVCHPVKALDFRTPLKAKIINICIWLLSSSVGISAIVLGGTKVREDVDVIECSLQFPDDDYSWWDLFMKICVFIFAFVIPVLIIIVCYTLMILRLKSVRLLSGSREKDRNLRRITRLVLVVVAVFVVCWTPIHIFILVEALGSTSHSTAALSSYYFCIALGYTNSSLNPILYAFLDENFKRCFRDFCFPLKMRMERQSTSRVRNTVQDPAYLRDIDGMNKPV
Sodium-dependent noradrenaline transporter (Homo sapiens), sequence (P23975 whole entry): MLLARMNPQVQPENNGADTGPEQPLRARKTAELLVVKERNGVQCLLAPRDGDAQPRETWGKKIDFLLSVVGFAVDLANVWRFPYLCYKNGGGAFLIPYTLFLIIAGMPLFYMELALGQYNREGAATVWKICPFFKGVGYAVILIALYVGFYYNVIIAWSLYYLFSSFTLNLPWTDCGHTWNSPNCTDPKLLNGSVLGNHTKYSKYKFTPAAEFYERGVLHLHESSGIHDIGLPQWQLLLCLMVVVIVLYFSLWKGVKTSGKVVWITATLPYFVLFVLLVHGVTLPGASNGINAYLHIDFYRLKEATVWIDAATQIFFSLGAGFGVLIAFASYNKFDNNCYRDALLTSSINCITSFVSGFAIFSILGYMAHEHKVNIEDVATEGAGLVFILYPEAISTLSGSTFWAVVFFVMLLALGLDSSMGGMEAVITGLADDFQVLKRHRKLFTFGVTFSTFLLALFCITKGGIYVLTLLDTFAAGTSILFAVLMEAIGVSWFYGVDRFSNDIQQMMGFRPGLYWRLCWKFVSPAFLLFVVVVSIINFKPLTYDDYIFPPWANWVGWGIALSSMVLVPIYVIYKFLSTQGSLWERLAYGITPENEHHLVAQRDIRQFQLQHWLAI
Beta-2 adrenergic receptor (Homo sapiens), sequence (P07550 whole entry, looked up): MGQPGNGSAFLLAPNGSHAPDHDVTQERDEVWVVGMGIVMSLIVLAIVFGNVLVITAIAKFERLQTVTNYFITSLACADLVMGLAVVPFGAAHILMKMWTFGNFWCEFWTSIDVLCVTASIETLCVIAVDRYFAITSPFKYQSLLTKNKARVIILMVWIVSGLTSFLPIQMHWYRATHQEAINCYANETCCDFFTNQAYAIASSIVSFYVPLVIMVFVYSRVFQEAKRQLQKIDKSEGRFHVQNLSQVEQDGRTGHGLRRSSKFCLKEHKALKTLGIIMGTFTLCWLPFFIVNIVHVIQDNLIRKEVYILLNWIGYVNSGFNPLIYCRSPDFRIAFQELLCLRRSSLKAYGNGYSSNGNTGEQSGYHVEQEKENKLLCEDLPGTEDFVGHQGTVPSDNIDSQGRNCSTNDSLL
Sodium-dependent dopamine transporter (Homo sapiens), sequence (Q01959 whole entry): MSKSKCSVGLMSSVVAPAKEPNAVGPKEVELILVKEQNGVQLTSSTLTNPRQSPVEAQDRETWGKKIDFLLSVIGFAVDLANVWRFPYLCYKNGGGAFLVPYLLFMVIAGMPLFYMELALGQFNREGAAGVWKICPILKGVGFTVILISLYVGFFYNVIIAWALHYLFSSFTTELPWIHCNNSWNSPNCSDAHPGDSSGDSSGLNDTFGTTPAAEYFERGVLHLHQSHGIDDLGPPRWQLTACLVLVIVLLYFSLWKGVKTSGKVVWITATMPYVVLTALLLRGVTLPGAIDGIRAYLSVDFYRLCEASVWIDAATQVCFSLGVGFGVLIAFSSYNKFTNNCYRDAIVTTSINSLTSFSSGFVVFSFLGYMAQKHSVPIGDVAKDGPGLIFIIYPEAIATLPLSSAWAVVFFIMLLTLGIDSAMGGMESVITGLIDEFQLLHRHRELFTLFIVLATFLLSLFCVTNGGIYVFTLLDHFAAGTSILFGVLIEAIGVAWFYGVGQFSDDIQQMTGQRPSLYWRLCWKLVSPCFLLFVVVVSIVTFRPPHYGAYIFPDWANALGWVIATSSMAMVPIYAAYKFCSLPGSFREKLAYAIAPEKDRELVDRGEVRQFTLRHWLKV

`Nc1nc(NCCc2ccc(O)cc2)nc2nc(-c3ccco3)nn12` showed an inhibition [1] of 43.4%, an inhibition [2] of -3.4% and an inhibition [3] of 2.08%. The inhibition [4] was 23.6%, the inhibition [5] was -1.01% and the inhibition [6] was -5.28%. The inhibition [7] was 2.38%, the inhibition [8] was 22.4% and the inhibition [9] was 1.4%. The inhibition [10] was 44.1% and the inhibition [11] was 0.03%.

`Cc1cc(C)cc(C(=O)N(C)[C@H](Cc2ccc(-c3ccccc3)cc2)C(=O)N[C@@H](Cc2c[nH]c3ccccc23)C(=O)O)c1` gave an inhibition [1] of -6.1%, an inhibition [2] of 3.37% and an inhibition [3] of 1.27%. The inhibition [4] was 32.2%, the inhibition [5] was 7.27% and the inhibition [6] was 46.1%. For the same molecule, the inhibition [8] was 28.8% and the inhibition [11] was -1.4%.

For `CCCCN(CC)c1nc(C)nc2c1c(C)cn2-c1c(C)cc(C)cc1C`, the inhibition [1] was 28.8%, the inhibition [2] was -7.68% and the inhibition [3] was 14.4%. The inhibition [4] was 36%, the inhibition [5] was 39.7% and the inhibition [6] was 43.2%. For the same molecule, the inhibition [7] was 7.66%, the inhibition [8] was 74.3% and the inhibition [9] was -1.19%. The inhibition [10] was -0.04% and the inhibition [11] was 20.1%.

`Cc1c(OCc2cccc(-c3ccc(C(=O)O)cc3)c2)cc2c(c1C)C(=O)C(C1CCCC1)C2` (stereo unspecified) gave an inhibition [1] of -6.04%, an inhibition [2] of -5.2% and an inhibition [3] of 63.1%. It also gave an inhibition [6] of -0.11%, an inhibition [7] of -8.42% and an inhibition [8] of 17.6%. It also gave an inhibition [12] of -3.02% and an inhibition [9] of -4.07%.

`C=CCN1C[C@H](C)N([C@H](c2ccc(C(=O)N(CC)CC)cc2)c2cccc(O)c2)C[C@H]1C` was tested, and the inhibition [1] was 87.3%, the inhibition [2] was 3.05% and the inhibition [3] was 10.2%. The inhibition [4] was 26.9%, the inhibition [5] was 9.01% and the inhibition [6] was 99.8%. For the same molecule, the inhibition [7] was 99.9%, the inhibition [8] was 20.7% and the inhibition [12] was 5.03%. It also gave an inhibition [9] of 10%, an inhibition [10] of 13% and an inhibition [11] of 98.5%.

Molecule `C[C@H](CO)Nc1nc(SCc2cccc(Cl)c2F)nc2[nH]c(=O)sc12` has an inhibition [1] of 15.8%, an inhibition [2] of 8.37% and an inhibition [3] of 3.03%. It also gave an inhibition [4] of 8.96%, an inhibition [6] of 11% and an inhibition [12] of -7.23%. It also gave an inhibition [11] of 10.8%.

In the case of `COc1cc2c(CCNC(C)=O)c[nH]c2cc1Cl`, the inhibition [1] is reported as 5.27%, the inhibition [2] is reported as 3.89% and the inhibition [4] is reported as 14.1%. The inhibition [5] was 9.08%, the inhibition [6] was -6.29% and the inhibition [7] was -3.58%. It also gave an inhibition [8] of 20.1% and an inhibition [11] of -1.77%.

In the case of `N=C(N)SCCc1c[nH]cn1`, the inhibition [1] is reported as 13.1%, the inhibition [2] is reported as 6.81% and the inhibition [3] is reported as -9.87%. It also gave an inhibition [4] of -0.41%, an inhibition [5] of 17.9% and an inhibition [6] of 5.15%. For the same molecule, the inhibition [7] was -6.86%, the inhibition [8] was 5.09% and the inhibition [12] was -1.7%. For the same molecule, the inhibition [9] was 45.7%, the inhibition [10] was 11.5% and the inhibition [11] was -3.13%.

For `O=C(Cc1ccc(Cl)c(Cl)c1)N1CCCC[C@H]1CN1CCCC1`, the inhibition [1] was 94.7%, the inhibition [2] was 7.92% and the inhibition [3] was 11.4%. The inhibition [4] was 52.7%, the inhibition [5] was 34.8% and the inhibition [6] was 99.7%. The inhibition [7] was 17.6%, the inhibition [8] was 8.29% and the inhibition [12] was -5.65%. The inhibition [9] was 5.92%, the inhibition [10] was 23.7% and the inhibition [11] was 49.6%.

For `CC(C)C[C@H](NC(=O)N1CCCCCC1)C(=O)N[C@H](Cc1cn(C)c2ccccc12)C(=O)N[C@H](Cc1ccccn1)C(=O)O`, the inhibition [1] was 4.12%, the inhibition [2] was -6.68% and the inhibition [3] was 10.1%. The inhibition [4] was -1.54%, the inhibition [6] was -7.75% and the inhibition [8] was 25.5%. The inhibition [9] was -9.08% and the inhibition [11] was 16.7%.

In the case of `CCCCCNC(=O)NS(=O)(=O)c1cc([N+](=O)[O-])ccc1NC1CCCCC1`, the inhibition [1] is reported as 16%, the inhibition [2] is reported as -4.07% and the inhibition [3] is reported as 13.4%. It also gave an inhibition [4] of 26.3%, an inhibition [5] of -2.94% and an inhibition [6] of 14.7%. It also gave an inhibition [7] of 8.56%, an inhibition [8] of 34.5% and an inhibition [12] of 12.8%. For the same molecule, the inhibition [9] was -7.62%, the inhibition [10] was 83.9% and the inhibition [11] was 26.7%.

`O=C(O)CC/C=C\C[C@@H]1CO[C@H](c2ccccc2Cl)O[C@@H]1c1ccccc1O` gave an inhibition [1] of -1.8%, an inhibition [2] of -6.03% and an inhibition [3] of -9.67%. It also gave an inhibition [6] of 5.7%, an inhibition [7] of 46% and an inhibition [8] of 8.35%. The inhibition [12] was -3.05% and the inhibition [11] was 8.82%.

Work on `CC[C@@H]1CN2C(=O)N(C)c3nc(-c4ccccc4)[nH]c3C2=N1` yielded an inhibition [1] of 64.2%, an inhibition [2] of 65.2% and an inhibition [3] of -5.35%. For the same molecule, the inhibition [4] was 0.34%, the inhibition [5] was -5.85% and the inhibition [6] was 6.33%. For the same molecule, the inhibition [7] was -7.99%, the inhibition [8] was -3.48% and the inhibition [12] was 10.3%. The inhibition [10] was 19.5% and the inhibition [11] was -6.84%.

Work on `Cc1cccc(NC(=O)N[C@@H]2N=C(c3ccccc3)c3ccccc3N(C)C2=O)c1` yielded an inhibition [1] of 20.8%, an inhibition [2] of -4.38% and an inhibition [4] of 44.1%. The inhibition [5] was 7.07%, the inhibition [6] was 22.5% and the inhibition [7] was 8.95%. It also gave an inhibition [8] of 27.5%, an inhibition [12] of 6.3% and an inhibition [9] of -5.37%. For the same molecule, the inhibition [10] was 1.83% and the inhibition [11] was 5.79%.

With `C[C@H](Cc1cc2c(c(C(N)=O)c1)N(CCCO)CC2)NCCOc1ccccc1OCC(F)(F)F` the inhibition [1] was 38.9%, the inhibition [2] was 99% and the inhibition [3] was 81.6%. It also gave an inhibition [4] of 35.5%, an inhibition [5] of 69.7% and an inhibition [6] of 4.22%. For the same molecule, the inhibition [8] was 2.96%, the inhibition [9] was 1.73% and the inhibition [10] was -2.22%. The inhibition [11] was 38.8%.

`CSc1ccc(C(=O)N[C@@H]2CCCC[C@@H]2NC(=O)CNC(=O)c2cc(C(F)(F)F)ccc2NC(=O)NC(C)C)cc1` showed an inhibition [1] of 22.2%, an inhibition [2] of 6.71% and an inhibition [3] of -0.4%. The inhibition [4] was 28.2%, the inhibition [5] was 10.8% and the inhibition [6] was 15.3%. It also gave an inhibition [7] of 4.07%, an inhibition [8] of 46.9% and an inhibition [9] of -5.92%. For the same molecule, the inhibition [11] was 28%.

`COc1ccc(OC(F)(F)F)cc1CN[C@H]1CCCN[C@H]1c1ccccc1` gave an inhibition [1] of 59.9%, an inhibition [2] of -1.91% and an inhibition [3] of 2.37%. It also gave an inhibition [4] of 57.6%, an inhibition [5] of 0.54% and an inhibition [6] of 21.1%. The inhibition [8] was 17.5%, the inhibition [12] was 23.8% and the inhibition [9] was 13.1%. For the same molecule, the inhibition [10] was 22.6% and the inhibition [11] was 41.3%.

With `C/C(=N\NC(=O)[C@@H]1C(=O)NC[C@H]1c1ccccc1)c1cccc(Br)c1` the inhibition [1] was 21.3%, the inhibition [2] was -2.57% and the inhibition [5] was -7.62%. It also gave an inhibition [6] of 19.1%, an inhibition [8] of 46.9% and an inhibition [12] of 7.94%. It also gave an inhibition [9] of -4.26%, an inhibition [10] of 11.2% and an inhibition [11] of 50.1%.

`CCCCCCCCCCCCCCCCOC[C@H](COP(=O)([O-])OCC[N+](C)(C)C)OC(C)=O` gave an inhibition [1] of 7.97%, an inhibition [3] of 71.6% and an inhibition [5] of 68.8%. The inhibition [6] was 11.9%, the inhibition [7] was 43.7% and the inhibition [12] was 4.6%. The inhibition [11] was 35.1%.
